The values below come from patent US12630535B2, “Inhibitors of ACK1/TNK2 tyrosine kinase” (H. LEE MOFFITT CANCER CENTER AND RESEARCH INSTITUTE, INC., priority 2020, dated 2026).

In data set [1] the target is T1, ACK1 (Homo sapiens, UniProt Q07912). Kind of data set: ACK1 IC50 (Table 1). Format: biochemical.
Data set [2] deals with T1, ACK1. The data set is described as follows: Reaction Biology 33P Hotspot assay. Format: biochemical.
Data set [3] addresses T1, ACK1. Kind of data set: ACK1 ELISA. Format: biochemical. The conditions noted are these: read-out: ACK1 ELISA % Inhibition at 100 nM. For orientation: ELISA stands for enzyme-linked immunosorbent assay.
The test system of data set [4] is AR Tyr267 phosphorylation. The conditions noted are these: cited from earlier work.
Data set [5] relates to AKT Tyr176 phosphorylation. Particulars: pancreatic cancer cells; cited from earlier work.
In data set [6] the test system is castration and radioresistant prostate xenograft tumor. The conditions noted are these: cited from earlier work.
A further data set deals with A549 lung cancer cell. The conditions noted are these: 10 μM; cited from earlier work.
Data set [7] has as its system ACK1 autophosphorylation (Tyr284). Particulars: HEK293 cells, 2 μM; cited from earlier work.
The conditions of data set [8]: mouse models; cited from earlier work.
Data set [9] deals with ACK1 in NCI-H1703 human non-small cell lung cancer cells. Particulars: read-out: IC50 for ACK1 inhibition in NCI-H1703 cells (ELISA); cited from earlier work.

T1 sequence (Q07912 whole entry): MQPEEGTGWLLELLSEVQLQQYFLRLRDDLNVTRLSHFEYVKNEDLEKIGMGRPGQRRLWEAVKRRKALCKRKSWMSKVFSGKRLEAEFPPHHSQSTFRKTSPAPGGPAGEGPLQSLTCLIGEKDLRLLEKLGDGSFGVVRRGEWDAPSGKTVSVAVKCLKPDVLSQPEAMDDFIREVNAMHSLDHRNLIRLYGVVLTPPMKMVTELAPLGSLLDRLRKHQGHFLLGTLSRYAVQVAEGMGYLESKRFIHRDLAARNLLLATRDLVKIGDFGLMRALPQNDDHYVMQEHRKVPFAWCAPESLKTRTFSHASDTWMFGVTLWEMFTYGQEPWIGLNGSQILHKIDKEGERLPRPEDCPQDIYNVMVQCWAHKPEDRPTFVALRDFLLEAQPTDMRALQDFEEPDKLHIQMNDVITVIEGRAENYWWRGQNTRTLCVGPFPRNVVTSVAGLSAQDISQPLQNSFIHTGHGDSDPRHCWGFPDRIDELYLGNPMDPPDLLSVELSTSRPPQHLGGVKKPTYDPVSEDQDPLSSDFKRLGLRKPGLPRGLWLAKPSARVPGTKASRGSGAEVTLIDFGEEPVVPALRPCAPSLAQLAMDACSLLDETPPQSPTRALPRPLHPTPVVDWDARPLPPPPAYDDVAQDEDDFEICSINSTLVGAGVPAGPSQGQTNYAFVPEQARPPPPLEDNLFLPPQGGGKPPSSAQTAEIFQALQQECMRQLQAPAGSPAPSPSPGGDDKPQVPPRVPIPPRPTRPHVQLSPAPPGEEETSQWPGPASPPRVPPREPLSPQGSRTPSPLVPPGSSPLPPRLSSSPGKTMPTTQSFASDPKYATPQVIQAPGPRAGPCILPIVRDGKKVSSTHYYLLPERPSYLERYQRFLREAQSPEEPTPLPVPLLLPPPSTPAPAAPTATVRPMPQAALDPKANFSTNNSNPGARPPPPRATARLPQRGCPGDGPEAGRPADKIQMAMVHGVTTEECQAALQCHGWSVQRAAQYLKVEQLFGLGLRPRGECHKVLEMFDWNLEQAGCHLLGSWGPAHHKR

`Cc1cc(Nc2ncc(Cl)c(NC[C@H]3CCCO3)n2)c(F)cc1C1CCN(C)CC1` [(R)-5-chloro-N^2-(2-fluoro-5-methyl-4-(1-methylpiperidin-4-yl)phenyl)-N^4-((tetrahydrofuran-2-yl)methyl)pyrimidine-2,4-diamine]: the IC50 against ACK1 [1] stood at 85.3 nM.

`CN1CCN(c2ccc(Nc3ncc(Cl)c(NCC4CCOCC4)n3)cc2)CC1` [5-chloro-N^2-(4-(4-methylpiperazin-1-yl)phenyl)-N^4-((tetrahydro-2H-pyran-4-yl)methyl)pyrimidine-2,4-diamine]: the IC50 against ACK1 [1] is 20.5 nM.

Turning to `CN1CCN(c2cccc(Nc3ncc(Cl)c(NC[C@H]4CCCO4)n3)c2)CC1` [(R)-5-chloro-N^2-(3-(4-methylpiperazin-1-yl)phenyl)-N^4-((tetrahydrofuran-2-yl)methyl)pyrimidine-2,4-diamine], on ACK1 [2], the IC50 was determined as 88 nM.

`CN1CCC(c2ccc(Nc3ncc(Cl)c(NCC4CCOCC4)n3)cc2)CC1` [5-chloro-N^2-(4-(1-methylpiperidin-4-yl)phenyl)-N^4-((tetrahydro-2H-pyran-4-yl)methyl)pyrimidine-2,4-diamine] had an IC50 against ACK1 [1] of 39.5 nM.

With `COc1cc(N2CCN(C)CC2)ccc1Nc1ncc(Cl)c(NCc2ccc(Cl)cc2)n1` [5-chloro-N^4-(4-chlorobenzyl)-N^2-(2-methoxy-4-(4-methylpiperazin-1-yl)phenyl)pyrimidine-2,4-diamine], the inhibition at 0.1 µM at ACK1 [3] came to 67.9%.

`CN1CCN(c2ccc(Nc3ncc(Cl)c(NCC4CCOCC4)n3)cc2F)CC1` [5-chloro-N^2-(3-fluoro-4-(4-methylpiperazin-1-yl)phenyl)-N^4-((tetrahydro-2H-pyran-4-yl)methyl)pyrimidine-2,4-diamine] came in with an IC50 at ACK1 [1] of 19.8 nM.

At ACK1 [1], `COc1cc(C2CCN(C)CC2)ccc1Nc1ncc(Cl)c(NCC2CCOCC2)n1` [5-chloro-N^2-(2-methoxy-4-(1-methylpiperidin-4-yl)phenyl)-N^4-((tetrahydro-2H-pyran-4-yl)methyl)pyrimidine-2,4-diamine] returned an IC50 of 20.2 nM.

With `COc1cc(N2CCN(C)CC2)ccc1Nc1ncc(Cl)c(NCc2ccc(Cl)cc2Cl)n1` [5-chloro-N^4-(2,4-dichlorobenzyl)-N^2-(2-methoxy-4-(4-methylpiperazin-1-yl)phenyl)pyrimidine-2,4-diamine], the inhibition at 0.1 µM on ACK1 [3] was 78.1%. Moreover, the midpoint of inhibition against ACK1 [1], the IC50, lay at 70.1 nM.

For the compound `COc1c(Nc2ncc(Cl)c(NCC3CCOCC3)n2)ccc(N2CCN(C)CC2)c1F` [5-chloro-N^2-(3-fluoro-2-methoxy-4-(4-methylpiperazin-1-yl)phenyl)-N^4-((tetrahydro-2H-pyran-4-yl)methyl)pyrimidine-2,4-diamine], on ACK1 [2], inhibition was half-maximal at 87.9 nM (IC50).

The compound `COc1cc(N2CCN(C)CC2)ccc1Nc1ncc(Cl)c(NCC2CCOCC2)n1` [5-chloro-N^2-(2-methoxy-4-(4-methylpiperazin-1-yl)phenyl)-N^4-((tetrahydro-2H-pyran-4-yl)methyl)pyrimidine-2,4-diamine] registered an IC50 on ACK1 [1] of 14.9 nM.

Take `c1ccc(-c2oc3ncnc(NC[C@@H]4CCCO4)c3c2-c2ccccc2)cc1` [Compound 1b]: the “AR Tyr267 phosphorylation” value in data set [4] is given as “inhibits”. Further, the “ACK1 dependent AKT Tyr176 phosphorylation” value in [5] is “inhibits”. Besides, the xenograft tumor growth entry in [6] is listed as “inhibits”.

Regarding `COc1cc(N2CCN(C)CC2)ccc1Nc1ncc(Cl)c(NCc2ccc(F)cc2)n1` [5-chloro-N^4-(4-fluorobenzyl)-N^2-(2-methoxy-4-(4-methylpiperazin-1-yl)phenyl)pyrimidine-2,4-diamine], the inhibition at 0.1 µM on ACK1 [3] is 91.2%. The compound further showed an IC50 against ACK1 [1] of 43.9 nM.

The compound `CN1CCC(c2cc(F)c(Nc3ncc(Cl)c(NC[C@H]4CCCO4)n3)cc2F)CC1` [(R)-5-chloro-N^2-(2,5-difluoro-4-(1-methylpiperidin-4-yl)phenyl)-N^4-((tetrahydrofuran-2-yl)methyl)pyrimidine-2,4-diamine] yielded an IC50 on ACK1 [1] of 44.7 nM.

For the compound `CC(=O)N1CCN(c2ccc(Nc3ncc(Cl)c(NCC4CCOCC4)n3)cc2)CC1` [1-(4-(4-((5-chloro-4-(((tetrahydro-2H-pyran-4-yl)methyl)amino)pyrimidin-2-yl)amino)phenyl)piperazin-1-yl)ethan-1-one], the IC50 against ACK1 [2] stood at 26.6 nM.

On to `COc1cc(N2CCN(C)CC2)ccc1Nc1ncc2c(n1)N(C)c1ccccc1C(=O)N2` [Compound 3], for which the “A549 lung cancer cell growth” value with A549 lung cancer cell was “inhibits”. Also, in data set [7], the “EGF induced ACK1 autophosphorylation (Tyr284)” value is on record as “abolishes”.

As for `CN1CCN(c2ccc(Nc3ncc(Cl)c(NCc4ccc(F)cc4)n3)cc2)CC1` [5-chloro-N^4-(4-fluorobenzyl)-N^2-(4-(4-methylpiperazin-1-yl)phenyl)pyrimidine-2,4-diamine], at ACK1 [3], the inhibition at 0.1 µM turned out to be 94%. For the same compound, the IC50 at ACK1 [1] was found to be 35.6 nM.

As for `CC(C)Oc1cc(Nc2ncc(Cl)c(NC[C@H]3CCCO3)n2)ccc1C1CCN(C)CC1` [(R)-5-chloro-N^2-(3-isopropoxy-4-(1-methylpiperidin-4-yl)phenyl)-N^4-((tetrahydrofuran-2-yl)methyl)pyrimidine-2,4-diamine], at ACK1 [2], half-maximal inhibition (IC50) required 62 nM.

`CN1CCC(c2ccc(Nc3ncc(Cl)c(NCC4CCOCC4)n3)cc2F)CC1` [5-chloro-N^2-(3-fluoro-4-(1-methylpiperidin-4-yl)phenyl)-N^4-((tetrahydro-2H-pyran-4-yl)methyl)pyrimidine-2,4-diamine] displayed an IC50 against ACK1 [1] (unit inferred) of 35.9 nM.

Regarding `CN1CCN(c2ccc(Nc3ncc(Cl)c(NC[C@H]4CCCO4)n3)cc2C#N)CC1`, the IC50 on ACK1 [2] was found to be 112 nM.

As for `CC(C)OCc1cc(Nc2ncc(Cl)c(NC[C@H]3CCCO3)n2)ccc1N1CCN(C)CC1` [(R)-5-chloro-N^2-(3-(isopropoxymethyl)-4-(4-methylpiperazin-1-yl)phenyl)-N^4-((tetrahydrofuran-2-yl)methyl)pyrimidine-2,4-diamine], at ACK1 [2], the IC50 is 167 nM.

For the compound `COc1cc(Oc2ccccc2)ccc1-c1nc(C2CC(C)(O)C2)n2ccnc(N)c12` (centres unmarked) [Compound 4], the oral bioavailability entry in data set [8] was “orally bioavailable”. Further, in data set [9], the IC50 was 35 nM.

In turn, `COc1cc(N2CCN(C)CC2)c(F)cc1Nc1ncc(Cl)c(NCC2CCOCC2)n1` [5-chloro-N^2-(5-fluoro-2-methoxy-4-(4-methylpiperazin-1-yl)phenyl)-N4-((tetrahydro-2H-pyran-4-yl)methyl)pyrimidine-2,4-diamine] came in with an IC50 against ACK1 [2] of 11.9 nM.

For the compound `COc1cc(N2CCN(C)CC2)ccc1Nc1ncc(Cl)c(NCc2ccc(C)cc2)n1` [5-chloro-N^2-(2-methoxy-4-(4-methylpiperazin-1-yl)phenyl)-N^4-(4-methylbenzyl)pyrimidine-2,4-diamine], the inhibition at 0.1 µM on ACK1 [3] was determined as 77.6%. The same compound came in with an IC50 against ACK1 [1] of 50.8 nM.

`COc1cc(Nc2ncc(Cl)c(NC[C@H]3CCCO3)n2)ccc1C1CCN(C)CC1` [(R)-5-chloro-N^2-(3-methoxy-4-(1-methylpiperidin-4-yl)phenyl)-N^4-((tetrahydrofuran-2-yl)methyl)pyrimidine-2,4-diamine] displayed an IC50 at ACK1 [2] of 87.2 nM.

Turning to `COCCOCc1cc(Nc2ncc(Cl)c(NC[C@H]3CCCO3)n2)ccc1N1CCN(C)CC1` [(R)-5-chloro-N^2-(3-((2-methoxyethoxy)methyl)-4-(4-methylpiperazin-1-yl)phenyl)-N^4-((tetrahydrofuran-2-yl)methyl)pyrimidine-2,4-diamine], the IC50 at ACK1 [2] amounted to 198 nM.

With `COc1ccc(CNc2nc(Nc3ccc(N4CCN(C)CC4)cc3OC)ncc2Cl)cc1` [5-chloro-N^2-(2-methoxy-4-(4-methylpiperazin-1-yl)phenyl)-N^4-(4-methoxybenzyl)pyrimidine-2,4-diamine], the inhibition at 0.1 µM on ACK1 [3] came out at 70.3%. This compound also registered an IC50 on ACK1 [1] of 82.9 nM.

On to `COc1cc(N2CCN(C(C)=O)CC2)ccc1Nc1ncc(Cl)c(NCC2CCOCC2)n1` [1-(4-(4-((5-chloro-4-(((tetrahydro-2H-pyran-4-yl)methyl)amino)pyrimidin-2-yl)amino)-3-methoxyphenyl)piperazin-1-yl)ethan-1-one], for which, on ACK1 [2], 17.3 nM corresponded to half-maximal inhibition (IC50).

For `CC(=O)N1CCN(c2ccc(Nc3ncc(Cl)c(NCC4CCOCC4)n3)cc2OC(C)C)CC1` [1-(4-(4-((5-chloro-4-(((tetrahydro-2H-pyran-4-yl)methyl)amino)pyrimidin-2-yl)amino)-2-isopropoxyphenyl)piperazin-1-yl)ethan-1-one], the IC50 against ACK1 [2] was 9.87 nM.

`CN1CCN(c2ccc(Nc3ncc(Cl)c(NC[C@H]4CCCO4)n3)cc2CO)CC1` gave an IC50 on ACK1 [2] of 51 nM.

Turning to `COc1cc(N2CCN(C)CC2)ccc1Nc1ncc(Cl)c(NCc2ccccc2)n1` [N^4-benzyl-5-chloro-N^2-(2-methoxy-4-(4-methylpiperazin-1-yl)phenyl)pyrimidine-2,4-diamine], the inhibition at 0.1 µM at ACK1 [3] is 98.2%. Further, the IC50 at ACK1 [1] is 48.2 nM.

On to `CN1CCN(Cc2ccc(Nc3ncc(Cl)c(NCC4CCCO4)n3)cc2)CC1` (centres unmarked) [5-chloro-N^2-(4-((4-methylpiperazin-1-yl)methyl)phenyl)-N^4-((tetrahydrofuran-2-yl)methyl)pyrimidine-2,4-diamine], for which, at ACK1 [2], it took 145 nM to reach half-maximal inhibition (IC50).

A word on the IC50: it is the concentration at which inhibition is half-maximal. As a reminder, the inhibition is the change of the read-out against control, counted positive when it falls.
